Measurements as given in patent publication US20230090982A1, “DRUG FOR TREATING C[…] […] […] C” (priority 2020, published 2023).
Like-named read-outs stand apart in the source and are kept apart here.

Key:
[1] = test system: HeLa cervical adenocarcinoma cells
Protocol: (§1) The radioactivity of the samples was measured on a Tri-Carb 2800 TR (3-counter (PerkinElmer, USA) in an ULTIMA GOLD LLT scintillator (Perkin Elmer, USA). An aliquot of the sample (0.1 mL) was thoroughly mixed with the scintillator (0.9 mL) and the radioactivity was measured within no more than 2 h after the mixture was prepared.
(§2) Cells were cultured on the surface of 48-well polystyrene plates.
(§3) Primary human gingival fibroblasts and cervical adenocarcinoma HeLa cells were used as cell cultures. Cells were cultured in IMDM culture medium supplemented with 10% fetal bovine serum and an antibiotic (penicillin and streptomycin) in an atmosphere of 6% CO2, at 37° C.
(§4) During the experiment, the cells were placed into 48-well polystyrene plates with a well diameter of 1 cm, in the amount of 12 thousand cells per well, in triplicate for each type of sample (in 0.5 ml of culture medium). […] The cell suspension was sedimented by centrifugation at 800 g for 10 min, and aliquots were taken from the trypsin supernatant. The cell precipitation was resuspended in 220 μl of saline and 2 aliquots of 100 μl were taken to measure the radioactivity of the samples.

[2] = in water, alcohol; cited from earlier work
[3] = test system: Primary human gingival fibroblasts
Protocol: as §1, §2, §3, §4

[4] = 0.074% formaldehyde diluted in culture medium, compared with 0.11% formaldehyde solution
[5] = 0.074% formaldehyde in saline, compared with incubation in 0.11% formaldehyde solution
[6] = incubation in culture medium, added formaldehyde 0.00056%
[7] = incubation in culture medium, added formaldehyde 0.0028%
[8] = incubation in culture medium, added formaldehyde 0.014%
[9] = incubation in culture medium, added formaldehyde 0.074%
[10] = incubation in culture medium, added formaldehyde 0.11%
[11] = incubation in saline, added formaldehyde 0.00056%
[12] = incubation in saline, added formaldehyde 0.0028%
[13] = incubation in saline, added formaldehyde 0.014%
[14] = incubation in saline, added formaldehyde 0.074%
[15] = incubation in saline, added formaldehyde 0.11%

Compound: C=O [formaldehyde]
- activation of the production of endogenous formaldehyde [1, 4]: 30.2%
- activation of the production of endogenous formaldehyde [1, 5]: 32%
- Formaldehyde accumulation, Cells, % of what added [1, 6]: 0.28 ± 0.03 % of what added
- Formaldehyde accumulation, Trypsin eluate, % of what added [1, 6]: 0.20 ± 0.02 % of what added
- Formaldehyde accumulation, Cells, % of what added [1, 7]: 0.64 ± 0.13 % of what added
- Formaldehyde accumulation, Trypsin eluate, % of what added [1, 7]: 0.45 ± 0.06 % of what added
- Formaldehyde accumulation, Cells, % of what added [1, 8]: 1.52 ± 0.09 % of what added
- Formaldehyde accumulation, Trypsin eluate, % of what added [1, 8]: 1.92 ± 0.11 % of what added
- Formaldehyde accumulation, Cells, % of what added [1, 9]: 2.75 ± 0.18 % of what added
- Formaldehyde accumulation, Trypsin eluate, % of what added [1, 9]: 2.54 ± 0.14 % of what added
- Formaldehyde accumulation, Cells, % of what added [1, 10]: 1.92 ± 0.16 % of what added
- Formaldehyde accumulation, Trypsin eluate, % of what added [1, 10]: 1.83 ± 0.12 % of what added
- Formaldehyde accumulation, Cells, % of what added [1, 11]: 0.62 ± 0.04 % of what added
- Formaldehyde accumulation, Trypsin eluate, % of what added [1, 11]: 0.57 ± 0.04 % of what added
- Formaldehyde accumulation, Cells, % of what added [1, 12]: 1.34 ± 0.05 % of what added
- Formaldehyde accumulation, Trypsin eluate, % of what added [1, 12]: 2.14 ± 0.08 % of what added
- Formaldehyde accumulation, Cells, % of what added [1, 13]: 2.65 ± 0.11 % of what added
- Formaldehyde accumulation, Trypsin eluate, % of what added [1, 13]: 3.44 ± 0.19 % of what added
- Formaldehyde accumulation, Cells, % of what added [1, 14]: 2.75 ± 0.18 % of what added
- Formaldehyde accumulation, Trypsin eluate, % of what added [1, 14]: 3.32 ± 0.27 % of what added
- Formaldehyde accumulation, Cells, % of what added [1, 15]: 1.85 ± 0.25 % of what added
- Formaldehyde accumulation, Trypsin eluate, % of what added [1, 15]: 2.41 ± 0.11 % of what added
- solubility [2]: well dissolve in water, alcohol
- activation of the production of endogenous formaldehyde [3, 4]: 20.6%
- activation of the production of endogenous formaldehyde [3, 5]: 18.4%
- Formaldehyde accumulation, Cells, % of what added [3, 6]: 0.25 ± 0.02 % of what added
- Formaldehyde accumulation, Trypsin eluate, % of what added [3, 6]: 0.23 ± 0.03 % of what added
- Formaldehyde accumulation, Cells, % of what added [3, 7]: 0.55 ± 0.07 % of what added
- Formaldehyde accumulation, Trypsin eluate, % of what added [3, 7]: 0.56 ± 0.16 % of what added
- Formaldehyde accumulation, Cells, % of what added [3, 8]: 1.25 ± 0.13 % of what added
- Formaldehyde accumulation, Trypsin eluate, % of what added [3, 8]: 1.36 ± 0.15 % of what added
- Formaldehyde accumulation, Cells, % of what added [3, 9]: 1.7 ± 0.11 % of what added
- Formaldehyde accumulation, Trypsin eluate, % of what added [3, 9]: 2.33 ± 0.34 % of what added
- Formaldehyde accumulation, Cells, % of what added [3, 10]: 1.35 ± 0.09 % of what added
- Formaldehyde accumulation, Trypsin eluate, % of what added [3, 10]: 1.77 ± 0.16 % of what added
- Formaldehyde accumulation, Cells, % of what added [3, 11]: 0.53 ± 0.04 % of what added
- Formaldehyde accumulation, Trypsin eluate, % of what added [3, 11]: 0.45 ± 0.03 % of what added
- Formaldehyde accumulation, Cells, % of what added [3, 12]: 1.26 ± 0.11 % of what added
- Formaldehyde accumulation, Trypsin eluate, % of what added [3, 12]: 1.73 ± 0.23 % of what added
- Formaldehyde accumulation, Cells, % of what added [3, 13]: 3.11 ± 0.27 % of what added
- Formaldehyde accumulation, Trypsin eluate, % of what added [3, 13]: 3.41 ± 0.44 % of what added
- Formaldehyde accumulation, Cells, % of what added [3, 14]: 2.12 ± 0.33 % of what added
- Formaldehyde accumulation, Trypsin eluate, % of what added [3, 14]: 5.16 ± 0.85 % of what added
- Formaldehyde accumulation, Cells, % of what added [3, 15]: 1.73 ± 0.23 % of what added
- Formaldehyde accumulation, Trypsin eluate, % of what added [3, 15]: 3.71 ± 0.45 % of what added
